Laboratory results: PMC11435058, “Synthesis of New Thiazole-Privileged Chalcones as Tubulin Polymerization Inhibitors with Potential Anticancer Activities” (Pharmaceuticals, 2024)

Columns and labels:
NCI-H460 = assay: NCI-60 anticancer screen (SRB; single dose and five doses); conditions: Homo sapiens; for activity at 10 µM: NCI-H460, 48 h, read-out: Growth Percentage; for CC50: NCI-H460, read-out: LC50; for IC (TGI): NCI-H460, read-out: TGI
OVCAR-8 = assay: as above; conditions: Homo sapiens; for activity at 10 µM: OVCAR-8, 48 h, read-out: Growth Percentage; for CC50: OVCAR-8, read-out: LC50; for IC (TGI): OVCAR-8, read-out: TGI
IGROV1 = assay: NCI-60 anticancer screen (SRB; single dose and five doses); conditions: Homo sapiens; for activity at 10 µM: IGROV-1, 48 h, read-out: Growth Percentage; for CC50: IGROV-1, read-out: LC50; for IC (TGI): IGROV-1, read-out: TGI
SF-295 = assay: as above; conditions: Homo sapiens; for activity at 10 µM: SF-295, 48 h, read-out: Growth Percentage; for CC50: SF-295, read-out: LC50; for IC (TGI): SF-295, read-out: TGI
SN12C = assay: as above; conditions: Homo sapiens; for activity at 10 µM: 48 h, read-out: Growth Percentage; for CC50: read-out: LC50; for IC (TGI): read-out: TGI
HCC-2998 = assay: as above; conditions: for activity at 10 µM / GI50 / CC50: Homo sapiens; for activity at 10 µM: HCC 2998, 48 h, read-out: Growth Percentage; for GI50: HCC 2998; for CC50: HCC 2998, read-out: LC50; for TGI: five-dose, Colon Cancer HCC-2998
NCI-H23 = assay: as above; conditions: Homo sapiens; for activity at 10 µM: NCI-H23, 48 h, read-out: Growth Percentage; for CC50: NCI-H23, read-out: LC50; for IC (TGI): NCI-H23, read-out: TGI

Cc1[nH]c(=S)sc1C(=O)/C=C/c1cccc(F)c1 [2b, (E)-3-(3-Fluorophenyl)-1-(4-Methyl-2-Thioxo-2,3-Dihydrothiazol-5-yl)Prop-2-En-1-One]
activity at 10 µM (NCI-H460): 43.2%
activity at 10 µM (OVCAR-8): 60.5%
melting point: 234 to 236 °C
activity at 10 µM (IGROV1): 32.3%
activity at 10 µM (SF-295): 38.4%
activity at 10 µM (SN12C): 32.1%
activity at 10 µM (HCC-2998): 58.2%
activity at 10 µM (NCI-H23): 71.1%

COc1ccc(/C=C/C(=O)c2sc(=S)[nH]c2C)c(OC)c1 [2n, (E)-3-(2,4-Dimethoxyphenyl)-1-(4-Methyl-2-Thioxo-2,3-Dihydrothiazol-5-yl)Prop-2-En-1-One]
activity at 10 µM (NCI-H460): 89.8%
activity at 10 µM (OVCAR-8): 81.5%
melting point: 255 to 257 °C
activity at 10 µM (SF-295): 72.5%
activity at 10 µM (SN12C): 81%
activity at 10 µM (HCC-2998): 80.7%
activity at 10 µM (NCI-H23): 72.9%

Cc1[nH]c(=S)sc1C(=O)/C=C/c1ccc(Cl)cc1 [2f, (E)-3-(4-Chlorophenyl)-1-(4-Methyl-2-Thioxo-2,3-Dihydrothiazol-5-yl)Prop-2-En-1-One]
GI50 (NCI-H460; NCI-H460): 12 µM
IC50 (NCI-H460; NCI-H460): 19.1 µM
activity at 10 µM (NCI-H460): 82.6%
CC50 (NCI-H460): 69.2 µM
IC (TGI) (NCI-H460): 28.8 µM
GI50 (OVCAR-8; OVCAR-8): 8.51 µM
IC50 (OVCAR-8; OVCAR-8): 14.5 µM
activity at 10 µM (OVCAR-8): 4.96%
CC50 (OVCAR-8): 55 µM
IC (TGI) (OVCAR-8): 22.9 µM
GI50 (IGROV1; IGROV-1): 13.2 µM
IC50 (IGROV1; IGROV-1): 25.7 µM
CC50 (IGROV1): 93.3 µM
IC (TGI) (IGROV1): 34.7 µM
GI50 (SF-295; SF-295): 15.8 µM
IC50 (SF-295; SF-295): 28.8 µM
activity at 10 µM (SF-295): 42.6%
CC50 (SF-295): 55 µM
IC (TGI) (SF-295): 29.5 µM
GI50 (SN12C): 4.9 µM
IC50 (SN12C): 10.7 µM
activity at 10 µM (SN12C): 4.62%
CC50 (SN12C): 43.6 µM
IC (TGI) (SN12C): 18.2 µM
activity at 10 µM (HCC-2998): -21.3%
GI50 (NCI-H23; NCI-H23): 14.8 µM
IC50 (NCI-H23; NCI-H23): 26.9 µM
activity at 10 µM (NCI-H23): 36.4%
CC50 (NCI-H23): 58.9 µM
IC (TGI) (NCI-H23): 29.5 µM

Cc1[nH]c(=S)sc1C(=O)/C=C/c1ccc([N+](=O)[O-])cc1 [2i, (E)-1-(4-Methyl-2-Thioxo-2,3-Dihydrothiazol-5-yl)-3-(4-Nitrophenyl)Prop-2-En-1-One]
GI50 (NCI-H460; NCI-H460): 15.9 µM
activity at 10 µM (NCI-H460): 11.3%
CC50 (NCI-H460): 72.5 µM
IC (TGI) (NCI-H460): 34 µM
GI50 (OVCAR-8; OVCAR-8): 7.73 µM
activity at 10 µM (OVCAR-8): 7.06%
CC50 (OVCAR-8): 65.2 µM
IC (TGI) (OVCAR-8): 23.9 µM
GI50 (IGROV1; IGROV-1): 4.43 µM
activity at 10 µM (IGROV1): 16.1%
CC50 (IGROV1): 50.8 µM
IC (TGI) (IGROV1): 14.9 µM
GI50 (SF-295; SF-295): 16.1 µM
activity at 10 µM (SF-295): 86.1%
CC50 (SF-295): 56.5 µM
IC (TGI) (SF-295): 30.2 µM
GI50 (SN12C): 6.06 µM
activity at 10 µM (SN12C): 18.6%
CC50 (SN12C): 44.7 µM
IC (TGI) (SN12C): 19.3 µM
GI50 (HCC-2998): 9.37 µM
activity at 10 µM (HCC-2998): -11.9%
CC50 (HCC-2998): 47 µM
TGI (HCC-2998): 21.5 µM
GI50 (NCI-H23; NCI-H23): 12.2 µM
activity at 10 µM (NCI-H23): 49.2%
CC50 (NCI-H23): 52.6 µM
IC (TGI) (NCI-H23): 25.3 µM

Cc1[nH]c(=S)sc1C(=O)/C=C/c1ccc(F)cc1 [2c, (E)-3-(4-Fluorophenyl)-1-(4-Methyl-2-Thioxo-2,3-Dihydrothiazol-5-yl)Prop-2-En-1-One]
GI50 (NCI-H460; NCI-H460): 15.2 µM
activity at 10 µM (NCI-H460): 39.3%
CC50 (NCI-H460): 83.3 µM
IC (TGI) (NCI-H460): 35.6 µM
GI50 (OVCAR-8; OVCAR-8): 3.99 µM
activity at 10 µM (OVCAR-8): -13.6%
CC50 (OVCAR-8): 50.9 µM
IC (TGI) (OVCAR-8): 16.2 µM
GI50 (IGROV1; IGROV-1): 4.93 µM
activity at 10 µM (IGROV1): 51.2%
CC50 (IGROV1): 62.3 µM
IC (TGI) (IGROV1): 19.7 µM
GI50 (SF-295; SF-295): 12.5 µM
activity at 10 µM (SF-295): 60.6%
CC50 (SF-295): 52.9 µM
IC (TGI) (SF-295): 25.7 µM
GI50 (SN12C): 3.95 µM
activity at 10 µM (SN12C): 24.1%
CC50 (SN12C): 46.7 µM
IC (TGI) (SN12C): 17 µM
GI50 (HCC-2998): 3.46 µM
activity at 10 µM (HCC-2998): 27.1%
CC50 (HCC-2998): 36.5 µM
TGI (HCC-2998): 13.2 µM
GI50 (NCI-H23; NCI-H23): 10.6 µM
activity at 10 µM (NCI-H23): 62.7%
CC50 (NCI-H23): 49.9 µM
IC (TGI) (NCI-H23): 23 µM
